The results in this text go back to patent US6313375A, “Maize aquaporins and uses thereof” (Pioneer Hi-Bred International, Inc., priority 1999, dated 2001).

One assay relates to maize aquaporins. Description: Inhibition of water transport through maize aquaporins in the Xenopus oocyte swelling assay. The class given is cell-based. On the procedure: (§1) The biological activity of aquaporins is usually determined with Xenopus oocyte swelling assays (Maurel et al, 1993). MIP cRNA is injected into oocytes and after a 3-day incubation the oocytes are shifted to a hypotonic medium. If water channel proteins are present in the plasma membrane, the oocytes swell and burst much faster than the control oocytes. In these conditions oocytes injected with the plasma membrane AtRD28 aquaporin (Daniels et al., 1994) or maize aquaporin cRNAs rapidly increase their volume, indicating the presence of a facilitated water-transport pathway. The osmotic water permeability coefficient (Pf) of the oocyte membrane increases 8-fold over the control. Mercurial compounds were characteristic inhibitors of many water-channel proteins. Water transport through maize aquaporins are inhibited 50% by 1 mM mercuric chloride and this inhibition is reversed by the reducing agent -mercaptoethanol.

The subject of another assay is Xenopus oocyte. Description: Xenopus oocyte swelling assay (oocytes injected with aquaporin cRNA, shifted to hypotonic medium). Format: cell-based. Conditions: 3-day incubation, versus control oocytes. On the procedure:
as §1

In the case of `OCCS` [-mercaptoethanol], the “reversal of the mercuric chloride inhibition of water transport through maize aquaporins” value in the assay on maize aquaporins (reducing agent added after inhibition by 1 mM mercuric chloride) is “reversed”.

Take `[Cl][Hg][Cl]` [mercuric chloride]: in the assay with maize aquaporins (1 mM mercuric chloride), the “inhibition of water transport through maize aquaporins” value turned out to be 50%.

B1: AtRD28 aquaporin: plasma membrane AtRD28 aquaporin (Daniels et al., 1994), injected into oocytes as cRNA (protein, UniProt P30302 1-285, looked up)
Aquaporin PIP2-3: MAKDVEGPDGFQTRDYEDPPPTPFFDAEELTKWSLYRAVIAEFVATLLFLYVTVLTVIGYKIQSDTKAGGVDCGGVGILGIAWAFGGMIFILVYCTAGISGGHINPAVTFGLFLARKVSLIRAVLYMVAQCLGAICGVGFVKAFQSSHYVNYGGGANFLADGYNTGTGLAAEIIGTFVLVYTVFSATDPKRNARDSHVPVLAPLPIGFAVFMVHLATIPITGTGINPARSFGAAVIFNKSKPWDDHWIFWVGPFIGATIAAFYHQFVLRASGSKSLGSFRSAANV
As to B1, the “increase of the osmotic water permeability coefficient (Pf) of the oocyte membrane over the control” value in the assay on Xenopus oocyte is given as 8 fold.
